Source: US9403806B1, “Cognition enhancing compounds and compositions, methods of making, and methods of treating” (NeuroSolis, Inc., priority 2010, dated 2016)

How the values were obtained:
[1] = target: T1, human muscarinic M1 receptors (Homo sapiens, UniProt P11229); experiment: IP production in A9L cells with human M1 receptors (IPOne TR-FRET), Example 28; format: cell-based
T1 construct: host or cells: A9L cells
T1 sequence (P11229 1-460): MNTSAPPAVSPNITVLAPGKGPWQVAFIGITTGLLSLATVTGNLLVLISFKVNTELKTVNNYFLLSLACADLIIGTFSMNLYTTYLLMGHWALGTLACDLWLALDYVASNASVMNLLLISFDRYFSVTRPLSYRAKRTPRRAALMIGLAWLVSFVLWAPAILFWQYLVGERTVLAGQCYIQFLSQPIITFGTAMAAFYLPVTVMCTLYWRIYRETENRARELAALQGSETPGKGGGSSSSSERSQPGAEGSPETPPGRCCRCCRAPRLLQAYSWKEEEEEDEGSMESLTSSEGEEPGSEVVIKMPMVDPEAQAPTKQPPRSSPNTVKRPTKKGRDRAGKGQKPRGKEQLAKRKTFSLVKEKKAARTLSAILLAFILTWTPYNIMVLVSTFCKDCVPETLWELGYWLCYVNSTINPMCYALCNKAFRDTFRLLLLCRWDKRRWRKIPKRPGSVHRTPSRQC
Summary of the method: (§1)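 A9L cells transfected with human M1 or M3 receptors, exposed to compound in medium with 10 mM LiCl and 10 mM HEPES (pH 7.4) for 60 min at 37 °C. IP in lysates measured by IPOne TR-FRET; efficacy expressed relative to full agonist (100%).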

[2] = target: T2, human muscarinic M3 receptors (Homo sapiens, UniProt P20309); experiment: IP production in A9L cells with human M3 receptors (IPOne TR-FRET), Example 28; format: cell-based
T2 construct: host or cells: A9L cells
T2 sequence (P20309 whole entry): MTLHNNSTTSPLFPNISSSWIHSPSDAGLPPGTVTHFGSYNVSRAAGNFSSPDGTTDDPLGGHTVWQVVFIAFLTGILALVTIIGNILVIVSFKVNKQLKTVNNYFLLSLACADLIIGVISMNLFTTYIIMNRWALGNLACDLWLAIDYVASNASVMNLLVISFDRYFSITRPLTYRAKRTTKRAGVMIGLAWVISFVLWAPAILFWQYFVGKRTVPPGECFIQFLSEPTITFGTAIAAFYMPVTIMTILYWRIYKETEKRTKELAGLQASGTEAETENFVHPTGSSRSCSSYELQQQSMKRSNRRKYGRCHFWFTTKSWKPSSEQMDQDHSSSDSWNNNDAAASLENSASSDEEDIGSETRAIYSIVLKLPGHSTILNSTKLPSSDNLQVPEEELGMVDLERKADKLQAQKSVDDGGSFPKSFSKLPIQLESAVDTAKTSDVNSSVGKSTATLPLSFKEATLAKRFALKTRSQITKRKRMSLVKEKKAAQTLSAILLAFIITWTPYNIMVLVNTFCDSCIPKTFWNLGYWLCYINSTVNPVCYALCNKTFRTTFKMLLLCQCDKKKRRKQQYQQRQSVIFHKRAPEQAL
Summary of the method: as §1

human FMO1 Supersomes = target: T3, human FMO1 Supersomes (Homo sapiens, UniProt Q01740); experiment: Metabolism by flavin monoxygenase 1 (FMO1) Supersomes; format: in vitro ADME; conditions: after 6 hours (FIG. 2)
T3 construct: purchased BD Biosciences 456241
T3 sequence (Q01740 1-532): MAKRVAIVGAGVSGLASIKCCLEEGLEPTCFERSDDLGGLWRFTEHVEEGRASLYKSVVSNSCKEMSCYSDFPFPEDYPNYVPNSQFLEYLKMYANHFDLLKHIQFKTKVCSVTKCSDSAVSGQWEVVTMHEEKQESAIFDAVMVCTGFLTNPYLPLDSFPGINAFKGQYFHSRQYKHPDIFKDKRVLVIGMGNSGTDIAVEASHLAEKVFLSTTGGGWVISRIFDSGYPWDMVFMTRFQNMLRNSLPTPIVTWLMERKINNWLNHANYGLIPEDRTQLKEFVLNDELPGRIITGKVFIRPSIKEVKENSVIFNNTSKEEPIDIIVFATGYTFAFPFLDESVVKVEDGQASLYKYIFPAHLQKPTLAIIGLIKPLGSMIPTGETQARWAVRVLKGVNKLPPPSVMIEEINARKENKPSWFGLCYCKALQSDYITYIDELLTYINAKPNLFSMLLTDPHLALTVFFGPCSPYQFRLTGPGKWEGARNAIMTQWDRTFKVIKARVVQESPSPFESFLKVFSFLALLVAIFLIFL
Procedure: […] Aliquots were removed every 10 minutes, and 1% formic acid was added to halt the reaction. Samples were centrifuged, filtered through 0.2 micron spinfilter and the amount of each compound in the supernatants was quantitated using LC/MS/MS.

[3] = test system: pooled male Sprague-Dawley rat liver microsomes; experiment: Metabolism by rat liver microsomes; format: in vitro ADME; conditions: 6 hours incubation (FIG. 3)
Procedure: (§2) Compounds were incubated with pooled male Sprague-Dawley rat liver microsomes (BD Biosciences, #452501) and an NADP-regenerating system in a phosphate buffer (pH 7.4) for a total of 6 hours. Aliquots were removed every 2 hours, and 1% formic acid was added to halt the reaction. Samples were centrifuged, filtered through 0.2 micron spinfilter and the amount of each compound in the supernatants was quantitated using LC/MS/MS.

[4] = test system: pooled male human liver microsomes; experiment: Metabolism by human liver microsomes, Example 33; format: in vitro ADME; conditions: 6 hours incubation (FIGS. 4A, 4B)
Procedure: as §2, with “human” for “Sprague-Dawley rat”, “#452172)” for “#452501)”

PAMPA test, Example 34 = conditions: PAMPA
CD-1 Mice = experiment: Novel object recognition assay; format: in vivo; conditions: oral dose 3.0 mg/kg, 1 hr inter-trial interval
Text: Object recognition memory—judgment of the prior occurrence of objects—is a key part of human memory, and is commonly impaired in neurodegenerative diseases, such as Alzheimer's disease (Winters B D et al Neurosci Behav Rev 32 (2008) 1055-70). This may be modeled in laboratory rodents using delayed spontaneous novel object recognition, which tests the ability of an animal to recognize an object it has previously been exposed to, after a delay. Drugs may be evaluated for their ability to improve the animal's ability to remember, recall or recognize objects in this model.
CD-1 Mice (males, 7-8 weeks old) were fasted for 16 hrs and orally dosed with compounds of interest 30 min before experiments began. Throughout those 30 min, animals were left in their home cages except during a 1 min handling habituation session at 10 min post-dosing. All handling and experiments were carried out under low, indirect light during the hours between 8 am and 3 pm. Compound 122a and donepezil were dissolved in PBS. […] Mouse activity was recorded using a digital video camera and evaluated after the trial. The time each mouse spent with its nose in contact with either object (investigation) was recorded for each minute of T2, and a Discrimination Score (D Score) was calculated using the following formula once the animal completed a total of 1 min of investigation. […]

[5] = rat, in vivo, po
in vitro = conditions: PAMPA
[6] = test system: pooled male human liver microsomes; experiment: Metabolism in human liver microsomes, Example 45; format: in vitro ADME
Summary of the method: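 Pooled male human liver microsomes sampled every 2 hours, reactions stopped with 1% formic acid. After centrifugation and ultrafiltration, remaining parent compound quantified by reverse-phase C8 LC/MS/MS with electrospray and MRM transitions against a standard calibration curve.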

[7] = percentage of maximal stimulation by carbachol
[8] = potency relative to carbachol at its EC50, semi-quantitative

Structure (SMILES): Cc1noc(C2=CCCN(C)C2)n1 [Compound 36, 3-methyl-5-(1-methyl-1,2,5,6-tetrahydropyridin-3-yl)-1,2,4-oxadiazole]
- potency and efficacy at M1 muscarinic receptors (in words) ([1]; huM1/A9L): reasonable potency and efficacy
- selectivity between M1 and M3 receptors ([1]; huM1 versus huM3 A9L cells): shows some selectivity for M1 versus M3 receptors
- huM1/A9L Smax [1, 7]: 72%
- huM1/A9L ED50 relative to CCh* [1, 8]: + (+ potency 2-10x CCh)
- huM3/A9L Smax [2, 7]: 39%
- huM3/A9L ED50 relative to CCh* [2, 8]: + (+ potency 2-10x CCh)
- extent of metabolism in FMO Supersomes (in words) (human FMO1 Supersomes): almost completely metabolized
- metabolism in rat liver microsomes (in words) [3]: nearly completely metabolized
- metabolism in human liver microsomes (in words) [4]: nearly completely metabolized
- Papp (PAMPA test, Example 34): 12.8 ×10⁻⁶ cm/s

Structure (SMILES): COc1cc2c(cc1OC)C(=O)C(CC1CCN(Cc3ccccc3)CC1)C2 (stereo not drawn) [Donepezil]
- Mean D Score (CD-1 Mice): 70.35%

Structure (SMILES): CNC(=C[N+](=O)[O-])NCCSCc1ccc(CN(C)C)o1 [Ranitidine]
- Brain/plasma ratio [5]: Very low
- Papp (in vitro): 0.26 ×10⁻⁶ cm/s

Structure (SMILES): CCCCCCOc1nsnc1C1=CCCN(C)C1 [Xanomeline, reference compound]
- Loss at 6 hrs (%) [6]: 100%
- Mean D Score (CD-1 Mice): 72.05%
